We go through 11 molecules from patent US20110039824A1, “1,2,3,6-tetrahydroazepino[4,5-b]indole-5-carboxylate nuclear receptor inhibitors” (Wyeth, priority 2008, published 2011).

SMILES strings stand for the structures.

This assay concerns the target T1, Gal4/hFXR fusion protein (Homo sapiens, UniProt Q96RI1).
T1 sequence (Q96RI1 262-486 limits assumed): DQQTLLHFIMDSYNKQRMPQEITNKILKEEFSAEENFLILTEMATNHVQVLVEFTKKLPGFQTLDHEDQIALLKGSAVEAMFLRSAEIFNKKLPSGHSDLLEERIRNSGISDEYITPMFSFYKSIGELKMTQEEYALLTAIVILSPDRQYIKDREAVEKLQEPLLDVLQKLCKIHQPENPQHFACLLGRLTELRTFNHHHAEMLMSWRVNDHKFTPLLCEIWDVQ
The assay is described as follows: Gal4/hFXR fusion protein agonist activity in human 293 cells (luciferase). The class given is cell-based. More on the design: Potency Range; other: Gal4/FXR agonist potency in 293 cells. Conditions: Gal4/FXR agonist potency in 293 cells; table does not say whether hFXR or mFXR; read-out: Potency Range. Here is the method: • Assay Medium: Phenol red free high glucose Dulbecco's modified Eagle's medium with sodium pyruvate (Cellgro, #17-205-CV) supplemented with 10% fetal bovine serum (Gibco, 16000-044), 1% glutamax (Gibco, 35050-061), 100 units/mL penicillin and 100 μg/mL streptomycin (Gibco, 15140-122). • Culturplate-96 (PerkinElmer, 6005688) • Lysis buffer (Promega, E3971) • Luciferase assay reagent (Promega E1483)
• 1. Compounds to be tested were prepared as 2× stocks in assay medium. • 2. […] The supernatant was removed and the cells were resuspended in 1 ml assay medium. The cells were counted and diluted in assay medium to 200,000 cells per ml. The cells were then plated at 10,000 cells per well in Culturplate-96 plates in 50 uL assay medium. The cells were incubated at 37° C. for approximately 1 hour. • 3. […] All assays included 1 uM GW4064 (Maloney et al., J. Med. Chem., 2000, 43(16), 2971-2974) as a reference standard. • 4. Cells were incubated for 24 hours at 37° C.
• 5. The medium was removed, and the cells were lysed in 25 uL lysis buffer (Promega, E3971). • 6. The plates were analyzed for luciferase activity with luciferase assay reagent (Promega E1483). Plates were read on Victor^3V instrument using the protocol “Shuguang Luciferase assay” (dispense volume=100 uL, plate type=“Packard Viewplate”, measurement height=8 mm from bottom of plate, 5 second read per well).
• 1. For agonist single point screening, data were analyzed in Excel. Each compound was tested in triplicate. • 2. For agonist potency determinations, statistical analysis of the data was performed using a customized Excel/SAS program. Dose response curves were generated using a four parameter (min, max, slope, and EC50 where EC50 is defined as the concentration which corresponds to midway between the estimated max and min) logistic model using log-transformed data (data was transformed on both sides with known lambda=0). • 3.
Turning to `CC(C)OC(=O)C1=CN(C(=O)c2cccc(CN3CCSC3)c2)CC(C)(C)c2c1[nH]c1ccccc21` [Example 10, Isopropyl 1,1-dimethyl-3-[3-(1,3-thiazolidin-3-ylmethyl)benzoyl]-1,2,3,6-tetrahydroazepino[4,5-b]indole-5-carboxylate], the EC50 fell in the range of 100 to 500 nM. Next, `CC(C)OC(=O)C1=CN(C(=O)c2cccc(CN3C[C@@H](C)O[C@H](C)C3)c2)CC(C)(C)c2c1[nH]c1ccccc21` [Example 5, Isopropyl 3-(3-{[(2R,6R)-2,6-dimethylmorpholin-4-yl]methyl}benzoyl)-1,1-dimethyl-1,2,3,6-tetrahydroazepino[4,5-b]indole-5-carboxylate]: 100 to 500 nM; `CC(C)OC(=O)C1=CN(C(=O)c2cccc(CN3CCC(N4CCCCC4)CC3)c2)CC(C)(C)c2c1[nH]c1ccccc21` [Example 11, Isopropyl 3-[3-(1,4′-bipiperidin-1′-ylmethyl)benzoyl]-1,1-dimethyl-1,2,3,6-tetrahydroazepino[4,5-b]indole-5-carboxylate]: 1000 to 10000 nM.

`CC(C)OC(=O)C1=CN(C(=O)c2cccc(CN3CCC(C(N)=O)CC3)c2)CC(C)(C)c2c1[nH]c1ccccc21` [Example 8, Isopropyl 3-{3-[(4-carbamoylpiperidin-1-yl)methyl]benzoyl}-1,1-dimethyl-1,2,3,6-tetrahydroazepino[4,5-b]indole-5-carboxylate]: the EC50 fell in the range of 500 to 1000 nM. Regarding `CC(C)OC(=O)C1=CN(C(=O)c2cccc(CN3C[C@@H](C)O[C@@H](C)C3)c2)CC(C)(C)c2c1[nH]c1ccccc21` [Example 6, Isopropyl 3-(3-{[(2R,6S)-2,6-dimethylmorpholin-4-yl]methyl}benzoyl)-1,1-dimethyl-1,2,3,6-tetrahydroazepino[4,5-b]indole-5-carboxylate], the EC50 is 500 to 1000 nM. Take `CC(C)OC(=O)C1=CN(C(=O)c2cccc(CN(C)C3CCCCC3)c2)CC(C)(C)c2c1[nH]c1ccccc21` [Example 18, Isopropyl 3-(3-{[cyclohexyl(methyl)amino]methyl}benzoyl)-1,1-dimethyl-1,2,3,6-tetrahydroazepino[4,5-b]indole-5-carboxylate]: the EC50 is 500 to 1000 nM. `CC(C)OC(=O)C1=CN(C(=O)c2cccc(CN3C[C@@H](C)C[C@H](C)C3)c2)CC(C)(C)c2c1[nH]c1ccccc21` [Example 13, Isopropyl 3-(3-{[(3S,5S)-3,5-dimethylpiperidin-1-yl]methyl}benzoyl)-1,1-dimethyl-1,2,3,6-tetrahydroazepino[4,5-b]indole-5-carboxylate]: the EC50 is 100 to 500 nM. Under `CC(C)OC(=O)C1=CN(C(=O)c2cccc(CNC3CCCCC3)c2)CC(C)(C)c2c1[nH]c1ccccc21` [Example 17, Isopropyl 3-{3-[(cyclohexylamino)methyl]benzoyl}-1,1-dimethyl-1,2,3,6-tetrahydroazepino[4,5-b]indole-5-carboxylate] stands 500 to 1000 nM; under `CC(C)OC(=O)C1=CN(C(=O)c2cccc(CN3C[C@H](C)C[C@H](C)C3)c2)CC(C)(C)c2c1[nH]c1ccccc21` [Example 14, Isopropyl 3-(3-{[(R3R,5S)-3,5-dimethylpiperidin-1-yl]methyl}benzoyl)-1,1-dimethyl-1,2,3,6-tetrahydroazepino[4,5-b]indole-5-carboxylate], 1000 to 10000 nM; under `CC(C)OC(=O)C1=CN(C(=O)c2cccc(CN3CCC(N4CCCC4)CC3)c2)CC(C)(C)c2c1[nH]c1ccccc21` [Example 12, Isopropyl 1,1-dimethyl-3-{3-[(4-pyrrolidin-1-ylpiperidin-1-yl)methyl]benzoyl}-1,2,3,6-tetrahydroazepino[4,5-b]indole-5-carboxylate], 1000 to 10000 nM. Under `CC(C)OC(=O)C1=CN(C(=O)c2cccc(CN3[C@@H](C)CC[C@@H]3C)c2)CC(C)(C)c2c1[nH]c1ccccc21` [Example 16, Isopropyl 3-(3-{[(2S,5S)-2,5-dimethylpyrrolidin-1-yl]methyl}benzoyl)-1,1-dimethyl-1,2,3,6-tetrahydroazepino[4,5-b]indole-5-carboxylate] stands 1000 to 10000 nM.
